Source: patent publication US8187320B2, “Medical implants containing FK506 (tacrolimus)” (Abbott Laboratories Vascular Enterprises Limited, priority 2001, dated 2012)
Where “and” joins values, the source holds several entries; their conditions need not be identical. Equal values may be shown once. Marks after values point to notes of the source that are not given here. Values belong to the compound of their own block, whether it stands above or below them.

Columns and labels:
[1] = tested on: smooth muscle cells (SMC); experiment: Inhibition of proliferation of smooth muscle cell (SMC) cultures; type: cell-based
[2] = tested on: neointima formation and foci of inflammation; experiment: Animal study: FK506-loaded ceramic-coated stents implanted into the carotid artery of rabbits; type: in vivo, New Zealand rabbits; settings: ceramic-coated stents loaded with 60 μg of FK506; rabbit carotid artery; after 28 days
Protocol: Stainless steel coronary stents (JOSTENT Flex, 16 mm) were coated with an aluminum oxide ceramic layer. This coating served as carrier of FK506 (as described in Example 5). In this case, the stents were loaded with a total of 60 μg of FK506. In an animal study in rabbits (n=7), these FK506 coated stents and normal stents without coating were implanted into the carotid artery of New Zealand rabbits. The release of FK506 and the effect of FK506 on the growth of the intima and the formation of macrophages and lymphocytes was investigated.
The release of FK506 were determined by HPLC determination of the amount of FK506 in the blood of the rabbits after 1 hr, 8 hr, 24 hr and 48 hr. FIG. 6 is a graph showing the release of FK506 over time. The rabbits were sacrificed after 28 days, and the implanted stents were examined. The area of newly grown intima (neointima) within the stent was quantified under the optical microscope, and is reported in FIG. 7. There is a reduction of 53% in the formation of neointima for stents loaded with 60 μg of FK506 compared with bare stents. […] The use of stents with a ceramic coating onto which FK506 is applied thus leads to a distinct reduction in neointima and in foci of inflammation after the implantation.

[3] = Loading of selected active agents onto stent grafts / polyurethane-coated stents; type: physicochemical; settings: type A: stent grafts with PTFE polymer layer immersed in solution of dissolved solids
Excerpt: Loading of Selected Active Agents onto Stent Grafts All values are stated in μg.

[4] = Active agent release from stent grafts and polymer-coated stents in PBS buffer at 37° C.; type: physicochemical; settings: type A PTFE stent graft, PBS 37° C.
Protocol: To analyze the active agent release, a stent was incubated at 37° C. in 10 ml of PBS buffer (stabilized with Na azide) at 37° C. After defined periods of time had elapsed, 2×1 ml of the solution were removed and analyzed. These 2 ml were replaced by fresh PBS buffer (stabilized with Na azide).
The tables reflect the total released content of active agent in the solution., ie., the amounts of active agent in the buffer volume removed for the analysis are accumulated with amounts detected in subsequent examples.

neointima formation [5] = settings: animal experiments; cited from earlier work
neointima formation [6] = settings: pigs; Heldman 2001; cited from earlier work
restenosis = settings: in vivo; cited from earlier work

SMILES: C=CC[C@@H]1/C=C(\C)C[C@H](C)C[C@H](OC)[C@H]2O[C@@](O)(C(=O)C(=O)N3CCCC[C@H]3C(=O)O[C@H](/C(C)=C/[C@@H]3CC[C@@H](O)[C@H](OC)C3)[C@H](C)[C@@H](O)CC1=O)[C@H](C)C[C@@H]2OC (relative stereo) [FK 506, [3S-[3R* [E(1S*, 3S*, 4S*)], 4S*, 5R*,-8S*, 9E, 12R*, 14R*, 15S*, 16R*, 18S*, 19S*, 26aR*]]-5,6,8,11,12, 13, 14, 15, 16, 17, 18, 19, 24, 25, 25, 26, 26a-hexadecahydro-5,19-dihydroxy-3-[2-(4-hydroxy-3-methoxycyclohexyl)-1-methylethenyl]-14,16-dimethoxy-4,10,12,18-tetramethyl-8-(2-propenyl)-15,19-epoxy-3H-pyrido[2,1-c] [1,4]oxaazacyclotricosine-1,7-20,21(4H,23H)-tetrone]
concentrations with inhibitory effect on SMC proliferation [1]: 300 to 500 nM | reduction in the formation of neointima compared with bare stents [2]: 53%

SMILES: N.N.[Cl][Pt][Cl] [Cisplatin]
amount of active agent loaded, Average [3]: 14 µg | amount of active agent loaded, single stent, measured by AAS ([3]; measured by AAS): 15* μg and 14* μg | total released content after 24 hr, single determinations ([4]; Cisplatin): 12.4 µg and 12.2 µg and 16.1 µg and 15.9 µg and 10.9 µg and 11.1 µg

SMILES: O=C1c2c(O)ccc(O)c2C(=O)c2c(NCCNCCO)ccc(NCCNCCO)c21 [Mitoxantrone]
amount of active agent loaded, Average [3]: 124 µg | amount of active agent loaded, single stent [3]: 116 µg and 142 µg and 113 µg

amount of active agent loaded, Average [3]: 144 µg | amount of active agent loaded, single stent [3]: 128 µg and 155 µg and 148 µg | total released content after 192 hr, Average ([4]; Paclitaxel, after 192 hr): 2.23 µg | total released content after 192 hr, single determinations ([4]; Paclitaxel, after 192 hr): 2.22 µg and 2.24 µg
SMILES: CC(=O)O[C@H]1C(=O)[C@@]2(C)[C@H]([C@H](OC(=O)c3ccccc3)[C@]3(O)C[C@H](OC(=O)[C@H](O)[C@@H](NC(=O)c4ccccc4)c4ccccc4)C(C)=C1C3(C)C)[C@]1(OC(C)=O)CO[C@@H]1C[C@@H]2O [Paclitaxel]
total released content after 8 hr, single determinations ([4]; Paclitaxel, after 8 hr): 1.16 and μg and 1.21 μg and 0.89 and 0.94 μg and 1.42 and 1.25 μg | total released content after 24 hr, single determinations ([4]; Paclitaxel): 2.44 and μg and 2.40 μg and 2.26 and 2.27 μg and 1.65 and 1.42 μg | total released content after 96 hr, single determinations ([4]; Paclitaxel, after 96 hr): 2.79 and μg and 2.78 μg and 2.82 and 2.82 μg and 1.42 and 1.93 μg | neointima formation (neointima formation [5]): inhibit neointima formation | duration of beneficial effect of coated stents (neointima formation [6]): beneficial effect has been observed to cease after 6 months

total released content after 96 hr, Average ([4]; Vinblastine, after 96 hr): 136 µg | total released content after 96 hr, single determinations ([4]; Vinblastine, after 96 hr): 132 and μg and 140 μg
SMILES: CC[C@]1(O)C[C@@H]2CN(CCc3c([nH]c4ccccc34)[C@@](C(=O)OC)(c3cc4c(cc3OC)N(C)[C@H]3[C@@](O)(C(=O)OC)[C@H](OC(C)=O)[C@]5(CC)C=CCN6CC[C@]43[C@@H]65)C2)C1 [Vinblastine]

SMILES: CO[C@H]1C[C@@H]2CC[C@@H](C)[C@@](O)(O2)C(=O)C(=O)N2CCCC[C@H]2C(=O)O[C@H]([C@H](C)C[C@@H]2CC[C@@H](O)[C@H](OC)C2)CC(=O)[C@H](C)/C=C(\C)[C@@H](O)[C@@H](OC)C(=O)[C@H](C)C[C@H](C)/C=C/C=C/C=C/1C [rapamycin]
healing of vessel wall injury caused by balloon angioplasty and stent implantation (restenosis): delays healing of vessel wall injury
